In this experiment the test system is WT Mtb Erdman strain. In words: Microplate Alamar Blue Assay (MABA), Mtb growth inhibition. Particulars: Mycobacterium tuberculosis, ERDMAN, 168 h, Middlebrook 7H9 media, 7 days at 37° C. in 5% CO2. In kind it is cell-based, Mycobacterium tuberculosis. (In general: The colour change of resazurin is a common sign of viable cells or microbes.)
In turn, `Cc1cc2c(NCCCc3ccccc3F)nc(C(F)(F)F)nc2s1` [Example 188, N-(3-(2-fluorophenyl)propyl)-6-methyl-2-(trifluoromethyl) thieno[2,3-d] pyrimidin-4-amine] displayed an IC50 of 5100 nM.
For `CCc1nc(NCCCc2ccccc2OC)c2cc(C)sc2n1` [Example 189, 2-ethyl-N-(3-(2-methoxyphenyl)propyl)-6-methylthieno[2,3-d]pyrimidin-4-amine], the IC50 worked out at 2800 nM. This IC50 lies about 1.8-fold lower than the previous one.
Turning to `CCc1nc(NCCCc2cccc(C(F)(F)F)c2)c2cc(C)sc2n1` [Example 190, 2-ethyl-6-methyl-N-(3-(3-(trifluoromethyl)phenyl)propyl) thieno[2,3-d] pyrimidin-4-amine], inhibition was half-maximal at 550 nM (IC50).
Turning to `CCc1nc(NCCCc2ccc(F)cc2)c2cc(C)sc2n1` [Example 191, 2-ethyl-N-(3-(4-fluorophenyl)propyl)-6-methylthieno[2,3-d]pyrimidin-4-amine], the half-maximal inhibitory concentration (IC50) stood at 360 nM.
In turn, `CCc1nc(NCCCN2CCCc3ccccc32)c2cc(C)sc2n1` [Example 192, N-(3-(3,4-dihydroquinolin-1(2H)-yl)propyl)-2-ethyl-6-methylthieno[2,3-d]pyrimidin-4-amine] gave an IC50 of 930 nM.
Take `CCc1nc(NCC#Cc2ccccc2)c2cc(C)sc2n1` [Example 193, 2-ethyl-6-methyl-N-(3-phenylprop-2-yn-1-yl)thieno[2,3-d]pyrimidin-4-amine]: the IC50 is 1800 nM. This IC50 is about 1.9-fold higher than that of the molecule before.
For `CCc1nc(NCC(O)Cc2ccccc2)c2cc(C)sc2n1` (centres unmarked) [Example 194, 1-((2-ethyl-6-methylthieno[2,3-d]pyrimidin-4-yl)amino)-3-phenylpropan-2-ol], the half-inhibitory concentration (IC50) is greater than 10000 nM.
`CCc1nc(NCCCN(C)c2ccccc2)c2cc(C)sc2n1` [Example 195, N1-(2-ethyl-6-methylthieno[2,3-d]pyrimidin-4-yl)-N3-methyl-N3-phenylpropane-1,3-diamine] displayed a half-maximal inhibitory concentration (IC50) of 680 nM. In other words, the sub-micromolar range.
For `CCc1nc(NCCCn2ccc3ccccc32)c2cc(C)sc2n1` [Example 196, N-(3-(1H-indol-1-yl)propyl)-2-ethyl-6-methylthieno[2,3-d]pyrimidin-4-amine], the concentration for half-maximal inhibition (IC50) turned out to be 450 nM.
The same measure for `CCc1nc(NCCCn2cccn2)c2cc(C)sc2n1` [Example 197, N-(3-(1H-pyrazol-1-yl)propyl)-2-ethyl-6-methylthieno[2,3-d]pyrimidin-4-amine]: 8200 nM.
For `CCc1nc(NCCCc2cccc3ccccc23)c2cc(C)sc2n1` [Example 198, 2-ethyl-6-methyl-N-(3-(naphthalen-1-yl)propyl)thieno[2,3-d]pyrimidin-4-amine], inhibition was half-maximal at 170 nM (IC50).
Regarding `CCc1nc(NCCCc2ccc(Br)cc2)c2cc(C)sc2n1` [Example 199, N-(3-(4-bromophenyl)propyl)-2-ethyl-6-methylthieno[2,3-d]pyrimidin-4-amine], the IC50 worked out at 120 nM. The IC50 values of the last two molecules are within 1.5-fold of each other.
For the molecule `CCc1nc(NCCCc2ccccc2F)c2cc(C)sc2n1` [Example 200, 2-ethyl-N-(3-(2-fluorophenyl)propyl)-6-methylthieno[2,3-d]pyrimidin-4-amine], the concentration for half-maximal inhibition (IC50) worked out at 650 nM.
`CCc1nc(NCCCc2ccc(Oc3ccccc3)cc2)c2cc(C)sc2n1` [Example 201, 2-ethyl-6-methyl-N-(3-(4-phenoxyphenyl)propyl)thieno[2,3-d]pyrimidin-4-amine] yielded an IC50 of 610 nM.
In turn, `CCc1nc(NCCCc2cccc(Br)c2)c2cc(C)sc2n1` [Example 202, N-(3-(3-bromophenyl)propyl)-2-ethyl-6-methylthieno[2,3-d]pyrimidin-4-amine] came in with an IC50 of 260 nM.
Take `CCc1nc(NCCCc2ccc(C(C)(C)C)cc2)c2cc(C)sc2n1` [Example 203, N-(3-(4-(tert-butyl)phenyl)propyl)-2-ethyl-6-methylthieno[2,3-d]pyrimidin-4-amine]: the IC50 stood at 89 nM.
Molecule `Cc1cc2c(NCCCc3ccc(Br)cc3)nc(C(F)(F)F)nc2s1` [Example 204, N-(3-(4-bromophenyl)propyl)-6-methyl-2-(trifluoromethyl) thieno[2,3-d] pyrimidin-4-amine] displayed an IC50 of 1900 nM.
The same measure for `Cc1cc2c(NCCCc3cccc4ccccc34)nc(C(F)(F)F)nc2s1` [Example 205, 6-methyl-N-(3-(naphthalen-1-yl)propyl)-2-(trifluoromethyl) thieno[2,3-d] pyrimidin-4-amine]: 1200 nM; for `Cc1cc2c(NCCCc3ccc(C(C)(C)C)cc3)nc(C(F)(F)F)nc2s1` [Example 206, N-(3-(4-(tert-butyl)phenyl)propyl)-6-methyl-2-(trifluoromethyl) thieno[2,3-d] pyrimidin-4-amine]: 260 nM.
`Cc1cc2c(NCCCCc3ccc(Br)cc3)nc(-c3ccoc3)nc2s1` [Example 207, N-(4-(4-bromophenyl)butyl)-2-(furan-3-yl)-6-methylthieno[2,3-d]pyrimidin-4-amine] had an IC50 of 350 nM.
For the molecule `Cc1cc2c(NCCCN3CCN(c4ccccc4)CC3)nc(-c3ccoc3)nc2s1` [Example 208, 2-(furan-3-yl)-6-methyl-N-(3-(4-phenylpiperazin-1-yl)propyl)thieno[2,3-d]pyrimidin-4-amine], half-maximal inhibition (IC50) required 3200 nM.
The molecule `Cc1cc2c(NCCN3CCN(c4ccccc4)CC3)nc(-c3ccoc3)nc2s1` [Example 209, 2-(furan-3-yl)-6-methyl-N-(2-(4-phenylpiperazin-1-yl)ethyl)thieno[2,3-d]pyrimidin-4-amine] gave an IC50 of 4900 nM.
For `Cc1cc2c(NCCC(=O)N3CCN(c4ccccc4)CC3)nc(-c3ccoc3)nc2s1` [Example 210, 3-((2-(furan-3-yl)-6-methylthieno[2,3-d]pyrimidin-4-yl)amino)-1-(4-phenylpiperazin-1-yl)propan-1-one], the midpoint of inhibition, the IC50, lay at 8200 nM.
For `Cc1cc2c(NCCCc3ccc(Br)cc3F)nc(-c3ccoc3)nc2s1` [Example 211, N-(3-(4-bromo-2-fluorophenyl)propyl)-2-(furan-3-yl)-6-methylthieno[2,3-d]pyrimidin-4-amine], 120 nM corresponded to half-maximal inhibition (IC50).
With `Clc1nc(NCCCc2ccccc2)c2ccsc2n1` [Example 218, 2-chloro-N-(3-phenylpropyl)thieno [2,3-d]pyrimidin-4-amine], the IC50 was found to be 6400 nM.
On to `COc1ccc(CCCNc2nc(Cl)nc3sccc23)cc1` [Example 219, 2-chloro-N-(3-(4-methoxyphenyl)propyl)thieno[2,3-d]pyrimidin-4-amine], for which the IC50 is greater than 7700 nM.
For `Fc1ccc([C@@H]2C[C@H]2Nc2nc(Cl)nc3sccc23)cc1F` [Example 220, 2-chloro-N-((1R,2S)-2-(3,4-difluorophenyl)cyclopropyl)thieno[2,3-d]pyrimidin-4-amine], the IC50 is greater than 7200 nM.
Next, `Fc1ccc([C@@H]2C[C@H]2Nc2nc(Cl)nc3scnc23)cc1F` [Example 221, 5-chloro-N-((1R,2S)-2-(3,4-difluorophenyl)cyclopropyl)thiazolo [5,4-d]pyrimidin-7-amine]: greater than 10000 nM.
The same measure for `Cc1cc2c(N[C@@H]3C[C@H]3c3ccc(F)c(F)c3)nc(Cl)nc2s1` [Example 222, 2-chloro-N-((1R,2S)-2-(3,4-difluorophenyl)cyclopropyl)-6-methylthieno[2,3-d]pyrimidin-4-amine]: 1500 nM; for `Cc1cc2c(NCCCc3ccc(OC(F)(F)F)cc3)nc(Cl)nc2s1` [Example 223, 2-chloro-6-methyl-N-(3-(4-(trifluoromethoxy)phenyl)propyl) thieno[2,3-d] pyrimidin-4-amine]: 1700 nM; for `Cc1cc2c(NCCCc3ccccc3)nc(Cl)nc2s1` [Example 224, 2-chloro-6-methyl-N-(3-phenylpropyl)thieno [2,3-d]pyrimidin-4-amine]: 1600 nM.
In the case of `Cc1cc2c(NC/C=C/c3ccccc3)nc(Cl)nc2s1` [Example 225, 2-chloro-N-cinnamyl-6-methylthieno[2,3-d]pyrimidin-4-amine], the IC50 came out at 390 nM.
As for `Cc1cc2c(N[C@@H]3C[C@H]3c3ccc(F)c(F)c3)nc(OCC(F)(F)F)nc2s1` [Example 226, N-((1R,2S)-2-(3,4-difluorophenyl)cyclopropyl)-6-methyl-2-(2,2,2-trifluoroethoxy)thieno [2,3-d]pyrimidin-4-amine], the half-inhibitory concentration (IC50) is 1200 nM.
Next, `Cc1cc2c(N[C@@H]3C[C@H]3c3ccc(F)c(F)c3)nc(C#N)nc2s1` [Example 227, 4-(((1R,2S)-2-(3,4-difluorophenyl)cyclopropyl)amino)-6-methylthieno[2,3-d]pyrimidine-2-carbonitrile]: 3300 nM.
In turn, `Cc1cccc(CCCNc2nc(C(F)(F)F)nc3sc(C)cc23)c1` [Example 228, 6-methyl-N-(3-(m-tolyl)propyl)-2-(trifluoromethyl)thieno [2,3-d]pyrimidin-4-amine] registered an IC50 of 1500 nM.
Next, `COC(=O)c1cccc(CCCNc2nc(C(F)(F)F)nc3sc(C)cc23)c1` [Example 229, methyl 3-(3-((6-methyl-2-(trifluoromethyl)thieno [2,3-d]pyrimidin-4-yl)amino)propyl) benzoate]: 5900 nM; `Cc1cc2c(NCCCc3cc4ccccc4s3)nc(C(F)(F)F)nc2s1` [Example 230, N-(3-(benzo [b]thiophen-2-yl)propyl)-6-methyl-2-(trifluoromethyl) thieno [2,3-d]pyrimidin-4-amine]: 2500 nM.
With `Cc1cc2c(NCCCc3cccc(F)c3)nc(C(F)(F)F)nc2s1` [Example 231, N-(3-(3-fluorophenyl)propyl)-6-methyl-2-(trifluoromethyl)thieno [2,3-d]pyrimidin-4-amine], the IC50 amounted to 1500 nM. Compared with the last molecule, the IC50 is about 1.7-fold lower.
With `Cc1cc2c(NCCCc3ccc4ccccc4c3)nc(C(F)(F)F)nc2s1` [Example 232, 6-methyl-N-(3-(naphthalen-2-yl)propyl)-2-(trifluoromethyl) thieno[2,3-d] pyrimidin-4-amine], 1300 nM corresponded to half-maximal inhibition (IC50).
As to `Cc1cc2c(NCCCc3ccc(OC4CC4)cc3)nc(C(F)(F)F)nc2s1` [Example 233, N-(3-(4-cyclopropoxyphenyl)propyl)-6-methyl-2-(trifluoromethyl) thieno[2,3-d] pyrimidin-4-amine], the IC50 stood at 2100 nM.
For the molecule `Cc1cc2c(NCCCc3ccc(C4CCCCC4)cc3)nc(C(F)(F)F)nc2s1` [Example 234, N-(3-(4-cyclohexylphenyl)propyl)-6-methyl-2-(trifluoromethyl) thieno[2,3-d] pyrimidin-4-amine], 1800 nM corresponded to half-maximal inhibition (IC50). This IC50 and that of the molecule before are within 1.5-fold of each other.

One may read the IC50 as the concentration that inhibits the measured activity by half. High values mean a need for much substance, low ones inhibition by little substance.

These data come from patent publication US20240279236A1, “COMPOUNDS AND METHODS OF TREATING TUBERCULOSIS” (Fimbrion Therapeutics, Inc., priority 2021, published 2024).
